This passage reports IC50 and Ki results from ChEMBL document CHEMBL1909046, “DrugMatrix in vitro pharmacology data”.

Among the targets are Cytochrome P450 2C19 (Homo sapiens, UniProt P33261); Cytochrome P450 2C9 (Homo sapiens, UniProt P11712); Cytochrome P450 2D6 (Homo sapiens, UniProt P10635).
The target in a further assay is Glycine receptor (Rattus norvegicus, UniProt P07727+P20781+P22771+P24524). Type of assay: cell membranes, Wistar, Spinal cord, Membrane.
For another assay, the target named is T1, Androgen receptor (Rattus norvegicus, UniProt P15207).
T1 sequence (P15207 whole entry): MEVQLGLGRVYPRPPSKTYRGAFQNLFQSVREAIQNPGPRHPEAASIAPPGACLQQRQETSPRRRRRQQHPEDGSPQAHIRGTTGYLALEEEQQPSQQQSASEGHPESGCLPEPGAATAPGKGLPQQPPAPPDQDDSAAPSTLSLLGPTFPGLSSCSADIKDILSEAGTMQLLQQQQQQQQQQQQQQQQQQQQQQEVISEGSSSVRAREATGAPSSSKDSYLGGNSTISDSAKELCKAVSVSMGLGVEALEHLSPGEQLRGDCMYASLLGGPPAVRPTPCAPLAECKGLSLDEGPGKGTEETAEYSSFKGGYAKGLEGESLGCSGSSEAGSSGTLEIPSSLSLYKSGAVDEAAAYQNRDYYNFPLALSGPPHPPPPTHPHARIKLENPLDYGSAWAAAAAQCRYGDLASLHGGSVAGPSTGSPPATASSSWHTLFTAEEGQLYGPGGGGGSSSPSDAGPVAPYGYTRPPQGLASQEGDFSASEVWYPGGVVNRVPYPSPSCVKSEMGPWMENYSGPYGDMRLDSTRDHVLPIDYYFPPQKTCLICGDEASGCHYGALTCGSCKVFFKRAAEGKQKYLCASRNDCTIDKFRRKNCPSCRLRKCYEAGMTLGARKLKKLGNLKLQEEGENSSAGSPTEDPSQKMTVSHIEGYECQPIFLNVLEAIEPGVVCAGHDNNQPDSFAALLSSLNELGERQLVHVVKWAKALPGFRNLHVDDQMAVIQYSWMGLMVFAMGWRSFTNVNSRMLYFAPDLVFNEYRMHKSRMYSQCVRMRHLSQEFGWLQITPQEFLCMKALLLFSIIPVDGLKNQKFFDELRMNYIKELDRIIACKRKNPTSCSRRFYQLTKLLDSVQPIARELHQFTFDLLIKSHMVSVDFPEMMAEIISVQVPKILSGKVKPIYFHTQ

In another assay the target is T2, Glucocorticoid receptor (Homo sapiens, UniProt P04150).
T2 sequence (P04150 whole entry): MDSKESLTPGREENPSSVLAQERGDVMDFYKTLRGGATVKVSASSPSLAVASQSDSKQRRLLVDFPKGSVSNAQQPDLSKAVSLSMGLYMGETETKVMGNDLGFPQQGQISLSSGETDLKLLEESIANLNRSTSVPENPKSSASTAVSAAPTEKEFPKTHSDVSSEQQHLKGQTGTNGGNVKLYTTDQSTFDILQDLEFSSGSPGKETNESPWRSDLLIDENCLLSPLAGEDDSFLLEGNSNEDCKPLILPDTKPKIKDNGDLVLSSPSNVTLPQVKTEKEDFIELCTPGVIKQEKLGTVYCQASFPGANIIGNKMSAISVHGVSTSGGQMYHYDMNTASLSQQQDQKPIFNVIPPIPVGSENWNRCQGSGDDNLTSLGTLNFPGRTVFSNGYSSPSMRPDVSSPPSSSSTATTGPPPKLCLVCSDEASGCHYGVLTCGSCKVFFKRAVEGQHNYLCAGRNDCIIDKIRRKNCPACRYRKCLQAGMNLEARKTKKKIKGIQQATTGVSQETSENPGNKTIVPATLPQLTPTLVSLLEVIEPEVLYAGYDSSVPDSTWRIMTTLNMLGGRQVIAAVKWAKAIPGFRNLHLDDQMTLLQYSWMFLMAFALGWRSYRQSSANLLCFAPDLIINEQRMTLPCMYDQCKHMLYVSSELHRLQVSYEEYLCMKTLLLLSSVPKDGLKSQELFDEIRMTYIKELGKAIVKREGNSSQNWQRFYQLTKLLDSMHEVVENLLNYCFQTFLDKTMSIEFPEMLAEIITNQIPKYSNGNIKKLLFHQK
Put plainly: biochemical.

The target in the next assay is T3, Cytochrome P450 1A2 (Homo sapiens, UniProt P05177).
T3 sequence (P05177 whole entry): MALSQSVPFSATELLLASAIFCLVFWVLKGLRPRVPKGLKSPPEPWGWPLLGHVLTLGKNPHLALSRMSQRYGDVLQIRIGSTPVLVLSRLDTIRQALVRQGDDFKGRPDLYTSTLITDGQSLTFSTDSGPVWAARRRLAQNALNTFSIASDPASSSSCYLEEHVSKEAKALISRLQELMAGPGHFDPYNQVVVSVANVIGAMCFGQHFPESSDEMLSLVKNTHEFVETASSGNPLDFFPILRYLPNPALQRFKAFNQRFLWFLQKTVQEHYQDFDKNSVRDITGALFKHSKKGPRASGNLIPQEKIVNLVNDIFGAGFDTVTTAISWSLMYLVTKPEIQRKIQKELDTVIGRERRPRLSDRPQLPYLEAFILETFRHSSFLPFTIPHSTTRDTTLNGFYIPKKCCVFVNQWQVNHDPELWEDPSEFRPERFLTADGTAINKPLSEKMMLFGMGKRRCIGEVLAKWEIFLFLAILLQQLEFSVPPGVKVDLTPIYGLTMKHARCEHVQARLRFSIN

In assay [1] the target is Voltage-gated inwardly rectifying potassium channel KCNH2 (Homo sapiens, UniProt Q12809).
Chain of Voltage-gated inwardly rectifying potassium channel KCNH2 (Q12809 whole entry): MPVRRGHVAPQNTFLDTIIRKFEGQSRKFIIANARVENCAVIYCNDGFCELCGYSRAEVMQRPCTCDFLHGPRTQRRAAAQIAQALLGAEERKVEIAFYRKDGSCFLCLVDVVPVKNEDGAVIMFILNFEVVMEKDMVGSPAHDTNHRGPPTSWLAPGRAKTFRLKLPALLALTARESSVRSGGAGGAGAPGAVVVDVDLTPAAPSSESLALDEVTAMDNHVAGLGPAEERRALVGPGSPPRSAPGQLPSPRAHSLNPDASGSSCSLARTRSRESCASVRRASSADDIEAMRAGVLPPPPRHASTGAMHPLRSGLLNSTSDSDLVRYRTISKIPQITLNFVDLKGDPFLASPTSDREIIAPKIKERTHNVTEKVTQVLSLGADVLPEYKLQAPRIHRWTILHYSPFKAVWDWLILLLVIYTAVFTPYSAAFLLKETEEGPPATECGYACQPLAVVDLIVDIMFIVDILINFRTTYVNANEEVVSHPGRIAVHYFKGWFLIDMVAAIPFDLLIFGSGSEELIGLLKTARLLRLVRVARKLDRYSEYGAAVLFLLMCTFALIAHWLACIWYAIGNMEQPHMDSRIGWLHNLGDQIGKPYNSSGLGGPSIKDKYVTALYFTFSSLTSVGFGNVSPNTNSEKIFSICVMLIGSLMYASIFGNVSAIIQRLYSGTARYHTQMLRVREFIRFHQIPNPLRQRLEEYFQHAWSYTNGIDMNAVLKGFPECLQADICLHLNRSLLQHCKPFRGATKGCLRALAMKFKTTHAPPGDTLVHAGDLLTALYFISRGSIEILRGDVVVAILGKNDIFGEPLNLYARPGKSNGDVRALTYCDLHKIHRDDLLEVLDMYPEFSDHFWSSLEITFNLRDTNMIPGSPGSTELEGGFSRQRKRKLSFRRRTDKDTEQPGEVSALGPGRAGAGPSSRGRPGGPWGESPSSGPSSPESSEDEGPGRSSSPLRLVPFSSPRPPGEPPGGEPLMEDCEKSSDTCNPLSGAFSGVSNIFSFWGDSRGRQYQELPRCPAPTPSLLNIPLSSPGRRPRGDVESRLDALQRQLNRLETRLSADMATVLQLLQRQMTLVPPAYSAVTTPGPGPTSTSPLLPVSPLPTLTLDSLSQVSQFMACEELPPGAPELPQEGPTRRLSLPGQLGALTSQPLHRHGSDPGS

Molecules are shown by their SMILES.

Chain of Cytochrome P450 2D6 (P10635 whole entry): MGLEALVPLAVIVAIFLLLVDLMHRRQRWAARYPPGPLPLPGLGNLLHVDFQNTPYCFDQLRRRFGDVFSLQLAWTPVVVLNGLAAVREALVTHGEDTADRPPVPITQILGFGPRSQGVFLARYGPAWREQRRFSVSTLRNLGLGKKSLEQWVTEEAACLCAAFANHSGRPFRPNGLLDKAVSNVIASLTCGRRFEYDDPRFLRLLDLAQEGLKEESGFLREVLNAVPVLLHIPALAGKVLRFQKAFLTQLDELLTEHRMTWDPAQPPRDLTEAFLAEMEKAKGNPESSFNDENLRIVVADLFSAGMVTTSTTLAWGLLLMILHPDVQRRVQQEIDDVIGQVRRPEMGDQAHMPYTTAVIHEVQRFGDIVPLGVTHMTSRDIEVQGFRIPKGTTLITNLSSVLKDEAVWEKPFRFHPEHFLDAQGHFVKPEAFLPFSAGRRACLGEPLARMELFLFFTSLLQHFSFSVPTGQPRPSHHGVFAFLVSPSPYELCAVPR
Chain of Cytochrome P450 2C9 (P11712 whole entry): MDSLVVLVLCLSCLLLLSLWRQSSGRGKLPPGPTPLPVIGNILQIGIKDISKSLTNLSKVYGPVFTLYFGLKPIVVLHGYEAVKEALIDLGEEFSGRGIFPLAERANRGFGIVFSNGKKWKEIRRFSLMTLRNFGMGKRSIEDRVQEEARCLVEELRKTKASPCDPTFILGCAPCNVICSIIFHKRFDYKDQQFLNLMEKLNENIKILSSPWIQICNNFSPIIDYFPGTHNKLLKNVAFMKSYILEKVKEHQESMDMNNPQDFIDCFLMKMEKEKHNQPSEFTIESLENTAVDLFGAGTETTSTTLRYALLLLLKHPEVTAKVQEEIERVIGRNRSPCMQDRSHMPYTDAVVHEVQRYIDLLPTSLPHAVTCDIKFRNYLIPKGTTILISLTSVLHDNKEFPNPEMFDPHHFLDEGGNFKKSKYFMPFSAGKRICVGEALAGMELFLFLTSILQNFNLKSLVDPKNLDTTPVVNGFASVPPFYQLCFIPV
Chain of Cytochrome P450 2C19 (P33261 whole entry): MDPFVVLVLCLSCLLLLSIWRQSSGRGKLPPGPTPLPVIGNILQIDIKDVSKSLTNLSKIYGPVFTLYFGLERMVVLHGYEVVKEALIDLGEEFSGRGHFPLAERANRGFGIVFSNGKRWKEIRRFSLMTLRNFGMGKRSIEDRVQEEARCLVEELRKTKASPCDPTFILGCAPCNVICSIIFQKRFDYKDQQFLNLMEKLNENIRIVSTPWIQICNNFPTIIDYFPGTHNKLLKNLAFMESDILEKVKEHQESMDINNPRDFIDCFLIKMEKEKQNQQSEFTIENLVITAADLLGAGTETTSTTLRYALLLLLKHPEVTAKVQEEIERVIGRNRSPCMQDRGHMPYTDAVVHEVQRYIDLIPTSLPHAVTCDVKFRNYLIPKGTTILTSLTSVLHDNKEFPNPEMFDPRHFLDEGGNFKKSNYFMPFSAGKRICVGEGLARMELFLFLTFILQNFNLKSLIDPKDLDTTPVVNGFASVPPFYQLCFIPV
Chain of Glycine receptor (P22771 whole entry): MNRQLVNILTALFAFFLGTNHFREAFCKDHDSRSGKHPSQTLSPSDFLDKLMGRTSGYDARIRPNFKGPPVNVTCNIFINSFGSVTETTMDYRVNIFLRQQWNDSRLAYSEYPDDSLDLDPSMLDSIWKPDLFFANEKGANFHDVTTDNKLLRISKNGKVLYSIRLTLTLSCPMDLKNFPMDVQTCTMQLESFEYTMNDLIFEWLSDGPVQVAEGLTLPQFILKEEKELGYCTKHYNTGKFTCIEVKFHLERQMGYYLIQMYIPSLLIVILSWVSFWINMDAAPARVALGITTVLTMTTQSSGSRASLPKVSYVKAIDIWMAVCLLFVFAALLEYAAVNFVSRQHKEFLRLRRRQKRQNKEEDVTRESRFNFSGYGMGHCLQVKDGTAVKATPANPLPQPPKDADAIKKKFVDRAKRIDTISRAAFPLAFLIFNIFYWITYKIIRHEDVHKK
Chain of Glycine receptor (P24524 whole entry): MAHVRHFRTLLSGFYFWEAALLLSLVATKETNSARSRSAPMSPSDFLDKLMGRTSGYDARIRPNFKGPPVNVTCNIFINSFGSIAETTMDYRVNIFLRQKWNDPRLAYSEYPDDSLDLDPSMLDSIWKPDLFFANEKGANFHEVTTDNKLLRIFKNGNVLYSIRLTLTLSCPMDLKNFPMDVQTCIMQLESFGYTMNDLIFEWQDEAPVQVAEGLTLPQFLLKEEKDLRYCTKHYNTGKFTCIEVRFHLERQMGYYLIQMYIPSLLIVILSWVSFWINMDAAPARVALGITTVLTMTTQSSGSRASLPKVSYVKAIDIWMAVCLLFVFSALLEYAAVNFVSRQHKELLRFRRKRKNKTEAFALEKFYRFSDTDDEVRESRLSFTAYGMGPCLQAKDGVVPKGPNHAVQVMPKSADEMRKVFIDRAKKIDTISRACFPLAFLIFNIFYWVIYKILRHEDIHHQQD
Chain of Glycine receptor (P07727 whole entry): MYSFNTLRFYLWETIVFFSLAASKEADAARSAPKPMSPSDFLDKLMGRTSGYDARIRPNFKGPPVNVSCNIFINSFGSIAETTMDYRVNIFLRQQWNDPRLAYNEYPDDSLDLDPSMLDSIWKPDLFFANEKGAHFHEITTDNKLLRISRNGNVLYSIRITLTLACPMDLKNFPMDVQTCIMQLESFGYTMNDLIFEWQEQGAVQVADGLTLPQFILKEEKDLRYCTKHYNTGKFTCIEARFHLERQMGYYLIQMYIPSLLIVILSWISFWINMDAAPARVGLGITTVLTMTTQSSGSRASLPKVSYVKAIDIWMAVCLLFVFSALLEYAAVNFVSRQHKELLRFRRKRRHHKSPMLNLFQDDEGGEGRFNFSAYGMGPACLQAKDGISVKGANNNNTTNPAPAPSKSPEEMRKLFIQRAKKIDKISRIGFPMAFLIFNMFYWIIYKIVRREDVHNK
Chain of Glycine receptor (P20781 whole entry): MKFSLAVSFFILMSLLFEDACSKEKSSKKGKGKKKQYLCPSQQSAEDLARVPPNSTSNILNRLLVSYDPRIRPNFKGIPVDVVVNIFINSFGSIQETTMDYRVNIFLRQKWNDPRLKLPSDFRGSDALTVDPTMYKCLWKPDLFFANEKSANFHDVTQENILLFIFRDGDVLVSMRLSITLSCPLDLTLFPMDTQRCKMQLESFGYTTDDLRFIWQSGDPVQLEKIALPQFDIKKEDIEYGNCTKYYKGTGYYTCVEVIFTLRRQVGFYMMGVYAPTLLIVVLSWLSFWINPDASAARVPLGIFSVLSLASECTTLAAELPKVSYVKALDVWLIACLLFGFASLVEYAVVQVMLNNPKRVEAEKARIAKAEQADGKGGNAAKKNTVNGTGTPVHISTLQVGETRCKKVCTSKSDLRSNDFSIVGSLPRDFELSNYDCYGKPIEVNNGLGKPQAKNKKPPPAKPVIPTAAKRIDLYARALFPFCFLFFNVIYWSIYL

What is called IC50 is the concentration at which inhibition is half-maximal. Higher therefore signals weaker potency. Regarding `O=C(c1ccccc1C(F)(F)F)N1CCC(Cc2ccccc2)CC1`, the half-inhibitory concentration (IC50) at Cytochrome P450 2C19 was 0.4 µM; against Cytochrome P450 2C9 it was 2 µM.

In general, Ki refers to a measure of affinity in units of concentration, obtained from inhibition or displacement. A high value points to a looser hold on the target. Turning to `CC[C@H](C)[C@H]1O[C@]2(C=C[C@@H]1C)C[C@@H]1C[C@@H](C/C=C(\C)[C@@H](O[C@H]3C[C@H](OC)[C@@H](O[C@H]4C[C@H](OC)[C@@H](O)[C@H](C)O4)[C@H](C)O3)[C@@H](C)/C=C/C=C3\CO[C@@H]4[C@H](O)C(C)=C[C@@H](C(=O)O1)[C@]34O)O2.CO[C@H]1C[C@H](O[C@H]2[C@H](C)O[C@@H](O[C@@H]3/C(C)=C/C[C@@H]4C[C@@H](C[C@]5(C=C[C@H](C)[C@@H](C(C)C)O5)O4)OC(=O)[C@@H]4C=C(C)[C@@H](O)[C@H]5OC/C(=C\C=C\[C@@H]3C)[C@]54O)C[C@@H]2OC)O[C@@H](C)[C@@H]1O` [ABAMECTIN], at Glycine receptor, the IC50 is 0.132 µM and the Ki came out at 0.075 µM.

Consider `COc1ccc2cc3[n+](cc2c1OC)CCc1cc2c(cc1-3)OCO2.[Cl-]` [BERBERINE CHLORIDE], for which half-maximal inhibition on Cytochrome P450 2D6 (IC50) required 4.5 µM.

`CC(=O)Oc1ccc(C(c2ccc(OC(C)=O)cc2)c2ccccn2)cc1` [BISACODYL]: at Cytochrome P450 2C9, inhibition was half-maximal at 10 µM (IC50).

Compound `Cc1cc2c(OCC(CNC(C)(C)C)OC(=O)c3ccccc3)cccc2[nH]1` (stereo unspecified) [BOPINDOLOL] displayed an IC50 against Cytochrome P450 2D6 of 5.48 µM.

As to `CCC(=O)O[C@]1(C(=O)CCl)[C@@H](C)C[C@H]2[C@@H]3CCC4=CC(=O)C=C[C@]4(C)[C@@]3(F)[C@@H](O)C[C@@]21C` [CLOBETASOL PROPIONATE], on Androgen receptor, half-maximal inhibition (IC50) required 3.78 µM and the Ki was determined as 2.52 µM. On Glucocorticoid receptor, this compound registered an IC50 of 0.00146 µM and an inhibition constant (Ki) of 0.000662 µM.

On to `C[C@@H]1C[C@H]2[C@@H]3CCC4=CC(=O)C=C[C@]4(C)[C@@]3(F)[C@@H](O)C[C@]2(C)[C@H]1C(=O)CO` [DESOXIMETASONE], for which, at Glucocorticoid receptor, it took 0.00257 µM to reach half-maximal inhibition (IC50) and the inhibition constant Ki came to 0.00117 µM.

In the case of `OC(CCCN1CCCCC1)(c1ccccc1)c1ccccc1` [DIPHENIDOL], half-maximal inhibition on Cytochrome P450 2D6 (IC50) required 0.326 µM.

Consider `Oc1c(Cl)cc(Cl)c(Cl)c1Cc1c(O)c(Cl)cc(Cl)c1Cl` [HEXACHLOROPHENE], for which the values for the IC50 at Androgen receptor, against Cytochrome P450 1A2 and against Cytochrome P450 2C19 were 4.98 µM, 1.31 µM and 1.23 µM, respectively. In addition, on Androgen receptor, the Ki is 3.32 µM.

As for `CC(=O)[C@@]1(O)CC[C@H]2[C@@H]3CCC4=CC(=O)CC[C@]4(C)[C@H]3CC[C@@]21C` [HYDROXYPROGESTERONE], on Glucocorticoid receptor, the IC50 stood at 0.051 µM and the Ki was 0.023 µM.

Turning to `COC1=C(OC)C(=O)C(CCCCCCCCCCO)=C(C)C1=O` [IDEBENONE], the IC50 is 0.8 µM on Cytochrome P450 2C19, 5 µM on Cytochrome P450 2C9 and 3 µM at Cytochrome P450 2D6.

As for `Cc1c(OCC(F)(F)F)ccnc1C[S+]([O-])c1nc2ccccc2[nH]1` (stereo unspecified) [LANSOPRAZOLE], the IC50 against Cytochrome P450 2C19 stood at 0.337 µM; on Cytochrome P450 2D6, 5.31 µM.

In turn, `O=c1cc(N2CCOCC2)oc2c(-c3ccccc3)cccc12` [LY-294002] had an IC50 at Cytochrome P450 1A2 of 1 µM.

For `CCN(CC)CCOCCC1=CCC2CC1C2(C)C` (stereo unspecified) [MYRTECAINE], in assay [1], the IC50 stood at 5.9 µM and the affinity, expressed as Ki, was 4.84 µM.

Turning to `O=C(N/N=C/c1ccc([N+](=O)[O-])o1)c1cc([N+](=O)[O-])cc([N+](=O)[O-])c1O` [NIFURSOL], the results for the concentration for half-maximal inhibition (IC50) against Cytochrome P450 2C19 and at Cytochrome P450 2C9 were 5 µM and 7 µM, respectively.

With `C#CC1(O)CC[C@H]2[C@@H]3CCC4=CC(=O)CC[C@@H]4[C@H]3CC[C@@]21CC` (stereo partly specified) [NORGESTREL], on Glucocorticoid receptor, the midpoint of inhibition, the IC50, lay at 0.149 µM and the Ki is 0.068 µM.

In assay [1], `COc1cc2nc(N3CCN(C(=O)c4ccco4)CC3)nc(N)c2cc1OC` [PRAZOSIN] came in with an IC50 of 24.3 µM and a Ki of 19.9 µM.

At Glucocorticoid receptor, `CC(=O)[C@H]1[C@H](C#N)C[C@H]2[C@@H]3CC=C4C[C@@H](O)CC[C@]4(C)[C@H]3CC[C@@]21C` [PREGNENOLONE CARBONITRILE] had an IC50 of 14 µM and a Ki of 6.34 µM.
